Assay results: patent US20250312462A1, “PAK1 DEGRADERS AND METHODS OF USE THEREOF” (INSTITUTE FOR CANCER RESEARCH D/B/A THE RESEARCH INSTITUTE …, priority 2022, published 2025)

What was measured:
AURKB = AURKB (Homo sapiens, UniProt Q96GD4); assay: KINOMEscan; details: read-out: Percent Control
Procedure: (§1) The kinase engagement assay (KINOMEscan®) was performed by DiscoverX assessing binding abilities toward a set of kinases.

PIK3CA(H1047Y) = PIK3CA(H1047Y) (Homo sapiens, UniProt P42336, H1047Y); assay: KINOMEscan; details: read-out: Percent Control
Procedure: as §1

ASK2 = ASK2 (Homo sapiens, UniProt O95382); assay: KINOMEscan; details: read-out: Percent Control
Procedure: as §1

FLT3 = FLT3 (Homo sapiens, UniProt P36888); assay: KINOMEscan; details: read-out: Percent Control
Procedure: as §1

GRK4 = GRK4 (Homo sapiens, UniProt P32298); assay: KINOMEscan; details: read-out: Percent Control
Procedure: as §1

SRPK1 = SRPK1 (Homo sapiens, UniProt Q96SB4); assay: KINOMEscan; details: read-out: Percent Control
Procedure: as §1

ACVR1B = ACVR1B (Homo sapiens, UniProt P36896); assay: KINOMEscan; details: read-out: Percent Control
Procedure: as §1

MAPKAPK2 = MAPKAPK2 (Homo sapiens, UniProt P49137); assay: KINOMEscan; details: read-out: Percent Control
Procedure: as §1

PRP4 = target: T1, PRP4 (Homo sapiens, UniProt Q13523); assay: KINOMEscan; format: binding; details: read-out: Percent Control
T1 construct: purchased DiscoverX

DYRK2 = DYRK2 (Homo sapiens, UniProt Q92630); assay: KINOMEscan; details: read-out: Percent Control
Procedure: as §1

BMPR1A = BMPR1A (Homo sapiens, UniProt P36894); assay: KINOMEscan; details: read-out: Percent Control
Procedure: as §1

MEK1 at S298 = assay: MEK phosphorylation in OVCAR3 and MCF7 cells, immunoblot; format: cell-based; details: 10 nM, 24 hours
Procedure: FIG. 3A is a series of Western blots showing OVCAR3 and MCF7 cells that were treated for 24 hours with DMSO, 10 nM BJG-05-039, or NVS-PAK1-1 as indicated. MEK and ERK phosphorylation was assessed by immunoblot with the indicated phosphorylation-specific antibodies. FIG. 3B is a Western blot showing MCF7 cells that were stably transduced with a doxycycline-regulated shRNA against PAK1. shRNA expression was induced by the indicated amounts of doxycycline and immunoblots were performed using cell lysates 24 hours post doxycycline addition. FIG. 3C is a Western blot showing MCF7 cells that were treated with vehicle or […] doxycycline. Immunoblots were performed using cell lysates 24 hours post doxycycline addition.
Cells were washed once in PBS and lysed in RIPA buffer (50 mM Tris-HCl, 150 mM NaCl, 0.25% (w/v) sodium deoxycholate, 1% (w/v) NP-40, pH 7.5) containing protease inhibitor cocktail (Roche) and phosphatase inhibitor cocktail (Roche) for 30 minutes on ice. […]
In certain cell lines, PAK1 has well-characterized functions in regulating proliferative signaling. […] As a readout for anti-PAK activity, phosphorylation of MEK1 at S298 was assessed, a direct target site for Group A PAKs (Coles, et al. (2002) Oncogene 21:2236-2244; Slack-Davis, et al. (2003) J. Cell. Biol., 162:281-291), as well as phosphorylation of the downstream target of MEK, ERK. […]

ROS1 = ROS1 (Homo sapiens, UniProt P08922); assay: KINOMEscan; details: read-out: Percent Control
Procedure: as §1

VEGFR2 = VEGFR2 (Homo sapiens, UniProt P35968); assay: KINOMEscan; details: read-out: Percent Control
Procedure: as §1

PRKG2 = PRKG2 (Homo sapiens, UniProt Q13237); assay: KINOMEscan; details: read-out: Percent Control
Procedure: as §1

[1] = target: RSK1(Kin.Dom.1-N-terminal) (Homo sapiens, UniProt Q15418); assay: KINOMEscan; details: read-out: Percent Control
Procedure: as §1

PIK3CA = PIK3CA (Homo sapiens, UniProt P42336); assay: KINOMEscan; details: read-out: Percent Control
Procedure: as §1

MAP4K4 = MAP4K4 (Homo sapiens, UniProt O95819); assay: KINOMEscan; details: read-out: Percent Control
Procedure: as §1

MEK2 = MEK2 (Homo sapiens, UniProt P36507); assay: KINOMEscan; details: read-out: Percent Control
Procedure: as §1

TRKB = TRKB (Homo sapiens, UniProt Q16620); assay: KINOMEscan; details: read-out: Percent Control
Procedure: as §1

ROCK1 = ROCK1 (Homo sapiens, UniProt Q13464); assay: KINOMEscan; details: read-out: Percent Control
Procedure: as §1

HUNK = HUNK (Homo sapiens, UniProt P57058); assay: KINOMEscan; details: read-out: Percent Control
Procedure: as §1

NDR1 = NDR1 (Homo sapiens, UniProt Q15208); assay: KINOMEscan; details: read-out: Percent Control
Procedure: as §1

PRKCD = PRKCD (Homo sapiens, UniProt Q05655); assay: KINOMEscan; details: read-out: Percent Control
Procedure: as §1

[2] = target: EGFR(L747-E749del, A750P) (Homo sapiens, UniProt P00533, A750P/DEL747-749); assay: KINOMEscan; details: read-out: Percent Control
Procedure: as §1

CAMK1 = CAMK1 (Homo sapiens, UniProt Q14012); assay: KINOMEscan; details: read-out: Percent Control
Sequence of CAMK1 (Q14012 whole entry): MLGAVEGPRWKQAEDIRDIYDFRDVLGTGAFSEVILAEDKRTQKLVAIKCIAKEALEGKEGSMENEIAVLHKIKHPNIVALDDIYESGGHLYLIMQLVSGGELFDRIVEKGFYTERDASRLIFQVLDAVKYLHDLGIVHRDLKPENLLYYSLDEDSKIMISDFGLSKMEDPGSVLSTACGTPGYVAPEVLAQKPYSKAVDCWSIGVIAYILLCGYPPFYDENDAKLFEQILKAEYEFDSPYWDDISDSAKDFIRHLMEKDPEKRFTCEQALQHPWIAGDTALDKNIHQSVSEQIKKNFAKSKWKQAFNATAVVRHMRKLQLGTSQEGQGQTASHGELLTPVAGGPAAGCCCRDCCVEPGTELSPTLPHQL
Procedure: as §1

Sequence of MAP4K4 (O95819 whole entry): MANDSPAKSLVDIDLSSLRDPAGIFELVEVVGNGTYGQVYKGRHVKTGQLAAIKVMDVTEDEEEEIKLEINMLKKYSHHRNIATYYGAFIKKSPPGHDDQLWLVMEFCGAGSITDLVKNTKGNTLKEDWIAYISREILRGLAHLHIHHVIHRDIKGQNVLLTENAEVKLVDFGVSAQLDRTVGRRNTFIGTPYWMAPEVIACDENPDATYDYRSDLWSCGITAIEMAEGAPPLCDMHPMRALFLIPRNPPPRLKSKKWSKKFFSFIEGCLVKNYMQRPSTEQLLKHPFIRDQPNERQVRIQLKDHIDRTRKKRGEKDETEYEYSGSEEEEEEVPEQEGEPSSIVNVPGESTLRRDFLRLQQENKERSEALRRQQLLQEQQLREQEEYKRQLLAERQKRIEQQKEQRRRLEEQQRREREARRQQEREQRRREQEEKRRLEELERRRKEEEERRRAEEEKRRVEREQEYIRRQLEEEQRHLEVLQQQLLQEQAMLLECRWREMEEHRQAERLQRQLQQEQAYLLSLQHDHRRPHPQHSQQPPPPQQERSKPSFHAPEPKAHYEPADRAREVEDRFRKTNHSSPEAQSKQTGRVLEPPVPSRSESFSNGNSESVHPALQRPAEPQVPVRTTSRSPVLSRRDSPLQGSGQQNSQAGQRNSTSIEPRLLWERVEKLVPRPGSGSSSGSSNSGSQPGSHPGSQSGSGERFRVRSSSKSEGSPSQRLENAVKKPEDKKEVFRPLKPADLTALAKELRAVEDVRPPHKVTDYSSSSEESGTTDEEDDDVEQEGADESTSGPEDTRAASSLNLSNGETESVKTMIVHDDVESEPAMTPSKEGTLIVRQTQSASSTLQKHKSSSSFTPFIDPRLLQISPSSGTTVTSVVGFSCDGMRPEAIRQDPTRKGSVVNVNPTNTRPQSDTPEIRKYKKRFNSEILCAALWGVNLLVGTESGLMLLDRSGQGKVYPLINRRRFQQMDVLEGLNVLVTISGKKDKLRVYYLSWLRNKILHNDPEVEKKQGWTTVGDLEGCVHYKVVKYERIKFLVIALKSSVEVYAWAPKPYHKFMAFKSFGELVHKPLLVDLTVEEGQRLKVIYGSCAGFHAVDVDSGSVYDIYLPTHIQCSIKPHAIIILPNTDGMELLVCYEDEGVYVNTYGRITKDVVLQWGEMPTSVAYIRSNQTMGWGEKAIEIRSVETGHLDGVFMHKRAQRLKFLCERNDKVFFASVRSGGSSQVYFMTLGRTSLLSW
Sequence of PIK3CA (P42336 whole entry): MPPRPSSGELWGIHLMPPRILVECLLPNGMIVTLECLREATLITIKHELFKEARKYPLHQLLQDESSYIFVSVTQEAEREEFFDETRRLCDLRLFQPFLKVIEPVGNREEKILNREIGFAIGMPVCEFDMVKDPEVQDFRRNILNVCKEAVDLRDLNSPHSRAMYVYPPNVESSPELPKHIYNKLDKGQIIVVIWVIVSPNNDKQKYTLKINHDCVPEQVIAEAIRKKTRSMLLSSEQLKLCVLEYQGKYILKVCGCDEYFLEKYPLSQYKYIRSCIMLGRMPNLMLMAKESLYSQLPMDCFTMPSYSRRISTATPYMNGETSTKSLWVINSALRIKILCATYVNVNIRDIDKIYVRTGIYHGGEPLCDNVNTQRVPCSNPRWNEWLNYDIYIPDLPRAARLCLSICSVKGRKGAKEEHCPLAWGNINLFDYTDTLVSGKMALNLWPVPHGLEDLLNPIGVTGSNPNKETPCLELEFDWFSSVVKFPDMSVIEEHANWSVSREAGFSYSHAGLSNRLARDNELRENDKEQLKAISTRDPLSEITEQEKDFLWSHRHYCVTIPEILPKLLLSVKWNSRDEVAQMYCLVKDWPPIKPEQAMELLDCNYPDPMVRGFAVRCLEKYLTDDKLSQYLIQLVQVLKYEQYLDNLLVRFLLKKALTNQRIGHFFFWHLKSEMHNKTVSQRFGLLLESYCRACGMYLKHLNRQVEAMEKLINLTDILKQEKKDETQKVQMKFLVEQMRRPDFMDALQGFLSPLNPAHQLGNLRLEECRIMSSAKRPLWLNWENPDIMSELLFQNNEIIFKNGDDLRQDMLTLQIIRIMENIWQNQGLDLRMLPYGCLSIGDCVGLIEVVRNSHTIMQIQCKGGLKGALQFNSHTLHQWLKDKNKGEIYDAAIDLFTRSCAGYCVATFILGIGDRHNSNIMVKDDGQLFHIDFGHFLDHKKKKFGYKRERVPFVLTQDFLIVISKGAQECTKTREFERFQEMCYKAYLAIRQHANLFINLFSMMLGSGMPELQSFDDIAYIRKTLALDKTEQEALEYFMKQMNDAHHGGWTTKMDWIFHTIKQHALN
Sequence of AURKB (Q96GD4 whole entry): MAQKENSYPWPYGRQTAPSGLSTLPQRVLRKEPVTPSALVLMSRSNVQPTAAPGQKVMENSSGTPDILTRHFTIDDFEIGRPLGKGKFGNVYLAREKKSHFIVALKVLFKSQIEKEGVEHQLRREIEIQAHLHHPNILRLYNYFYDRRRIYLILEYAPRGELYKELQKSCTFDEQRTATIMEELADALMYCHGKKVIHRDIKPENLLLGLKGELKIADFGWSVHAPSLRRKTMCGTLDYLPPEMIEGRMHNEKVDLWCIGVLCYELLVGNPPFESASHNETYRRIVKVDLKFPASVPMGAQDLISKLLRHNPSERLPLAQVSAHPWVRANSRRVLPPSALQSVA
Sequence of TRKB (Q16620 32-822): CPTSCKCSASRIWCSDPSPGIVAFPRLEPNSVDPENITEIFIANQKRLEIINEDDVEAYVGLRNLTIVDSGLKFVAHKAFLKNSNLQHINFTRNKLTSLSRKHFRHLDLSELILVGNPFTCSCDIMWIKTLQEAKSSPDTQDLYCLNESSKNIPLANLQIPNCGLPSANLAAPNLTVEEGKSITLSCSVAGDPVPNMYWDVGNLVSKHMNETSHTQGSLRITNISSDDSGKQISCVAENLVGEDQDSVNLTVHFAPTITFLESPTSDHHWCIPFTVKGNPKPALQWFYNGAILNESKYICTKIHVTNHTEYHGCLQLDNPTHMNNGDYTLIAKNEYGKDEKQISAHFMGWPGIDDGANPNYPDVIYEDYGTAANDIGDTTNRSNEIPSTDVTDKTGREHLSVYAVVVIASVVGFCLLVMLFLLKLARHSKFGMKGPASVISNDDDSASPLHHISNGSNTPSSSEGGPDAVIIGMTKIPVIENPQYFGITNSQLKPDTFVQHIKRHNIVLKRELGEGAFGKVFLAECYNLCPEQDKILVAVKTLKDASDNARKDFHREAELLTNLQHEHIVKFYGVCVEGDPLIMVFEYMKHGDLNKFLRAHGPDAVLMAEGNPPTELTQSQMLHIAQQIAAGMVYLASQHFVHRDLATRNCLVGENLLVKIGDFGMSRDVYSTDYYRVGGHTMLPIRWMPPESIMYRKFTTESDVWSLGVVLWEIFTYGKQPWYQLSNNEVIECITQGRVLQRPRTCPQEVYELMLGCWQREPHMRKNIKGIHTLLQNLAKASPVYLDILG
Sequence of PRKCD (Q05655 whole entry): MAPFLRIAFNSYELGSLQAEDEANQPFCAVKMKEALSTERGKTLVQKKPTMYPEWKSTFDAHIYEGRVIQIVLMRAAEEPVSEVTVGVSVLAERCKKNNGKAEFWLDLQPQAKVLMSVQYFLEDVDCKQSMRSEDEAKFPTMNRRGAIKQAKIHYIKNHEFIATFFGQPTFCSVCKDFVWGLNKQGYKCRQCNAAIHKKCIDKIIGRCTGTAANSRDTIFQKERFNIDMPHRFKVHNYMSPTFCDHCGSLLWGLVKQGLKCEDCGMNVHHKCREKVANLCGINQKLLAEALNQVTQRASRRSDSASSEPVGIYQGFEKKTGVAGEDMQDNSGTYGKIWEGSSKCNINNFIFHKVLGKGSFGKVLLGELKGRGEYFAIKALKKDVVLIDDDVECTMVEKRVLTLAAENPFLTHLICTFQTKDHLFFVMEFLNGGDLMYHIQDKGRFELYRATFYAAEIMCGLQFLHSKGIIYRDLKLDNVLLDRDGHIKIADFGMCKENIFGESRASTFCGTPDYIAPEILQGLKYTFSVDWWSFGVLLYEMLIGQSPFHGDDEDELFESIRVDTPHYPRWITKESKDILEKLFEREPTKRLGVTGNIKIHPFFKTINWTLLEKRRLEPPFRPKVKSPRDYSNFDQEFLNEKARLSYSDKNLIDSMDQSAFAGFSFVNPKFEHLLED
Sequence of MAPKAPK2 (P49137 whole entry): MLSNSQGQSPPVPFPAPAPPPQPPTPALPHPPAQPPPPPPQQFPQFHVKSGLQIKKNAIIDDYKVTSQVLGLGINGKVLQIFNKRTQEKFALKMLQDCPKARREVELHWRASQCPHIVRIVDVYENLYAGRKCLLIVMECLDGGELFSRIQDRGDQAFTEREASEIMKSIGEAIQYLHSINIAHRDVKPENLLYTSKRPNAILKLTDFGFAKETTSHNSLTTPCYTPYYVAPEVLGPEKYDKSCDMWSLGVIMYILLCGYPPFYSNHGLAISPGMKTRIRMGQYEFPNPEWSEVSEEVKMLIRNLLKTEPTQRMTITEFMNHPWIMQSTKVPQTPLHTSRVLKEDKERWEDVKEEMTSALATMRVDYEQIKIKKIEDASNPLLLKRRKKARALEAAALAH
Sequence of PIK3CA(H1047Y) (P42336 whole entry H1047Y): as the sequence (P42336 whole entry) above, with H1047Y counted along it

O=C1CCC(N2C(=O)c3cccc(NCCCCCCCCNC(=O)N4CC[C@H](NC5=Nc6cc(F)ccc6N(CC(F)F)c6ccc(Cl)cc65)C4)c3C2=O)C(=O)N1 (stereo partly drawn) [BJG-05-039, (3S)-3-((2-Chloro-5-(2,2-difluoroethyl)-8-fluoro-5H-dibenzo[b,e][1,4]diazepin-11-yl)amino)-N-(8-((2-(2,6-dioxopiperidin-3-yl)-1,3-dioxoisoindolin-4-yl)amino)octyl)pyrrolidine-1-carboxamide]
remaining binding at 10 µM (AURKB): 93%
remaining binding at 10 µM (PIK3CA(H1047Y)): 94%
remaining binding at 10 µM (ASK2): 78%
remaining binding at 10 µM (FLT3): 53%
remaining binding at 10 µM (GRK4): 71%
remaining binding at 10 µM (SRPK1): 87%
remaining binding at 10 µM (ACVR1B): 85%
remaining binding at 10 µM (MAPKAPK2): 60%
remaining binding at 10 µM (PRP4): 97%
remaining binding at 10 µM (DYRK2): 89%
remaining binding at 10 µM (BMPR1A): 98%
Phosphorylation of MEK S298 (MEK1 at S298): inhibited phosphorylation of MEK S298
remaining binding at 10 µM (ROS1): 94%
remaining binding at 10 µM (VEGFR2): 100%
remaining binding at 10 µM (PRKG2): 100%
remaining binding at 10 µM [1]: 87%
remaining binding at 10 µM (PIK3CA): 60%
remaining binding at 10 µM (MAP4K4): 45%
remaining binding at 10 µM (MEK2): 96%
remaining binding at 10 µM (TRKB): 67%
remaining binding at 10 µM (ROCK1): 100%
remaining binding at 10 µM (HUNK): 100%
remaining binding at 10 µM (NDR1): 86%
remaining binding at 10 µM (PRKCD): 97%
remaining binding at 10 µM [2]: 78%
remaining binding at 10 µM (CAMK1): 52%
